Calls of active or inactive are those of the source. No cut-off for these calls is given here.
Assays:
MDA-MB-231 [1] = assay: Induction of DNA damage in human MDA-MB-231 cells assessed as ATM expression level at 1 to 5 uM after 24 hrs by Western blot method; assay type: functional, cell-based
MDA-MB-231 [2] = assay: Induction of DNA damage in human MDA-MB-231 cells assessed as ATM S1981 phosphorylation at 1 to 5 uM after 24 hrs by Western blot method; assay type: functional, cell-based
[3] = molecular target: DNA topoisomerase 2-alpha (Homo sapiens) (UniProt P11388); assay: Inhibition of human recombinant topoisomerase 2alpha assessed as reduction in pBR322 DNA relaxation at 100 uM incubated for 30 mins by DNA gel electrophoresis
MDA-MB-231 [4] = assay: Increase in cyclin B protein expression in human MDA-MB-231 cells at 1 to 5 uM after 24 hrs by Western blot method; assay type: functional, cell-based
[5] = molecular target: DNA topoisomerase 2-alpha (Homo sapiens) (UniProt P11388); assay: Inhibition of human recombinant topoisomerase 2alpha assessed as increase in linear DNA using circular supercoiled plasmid DNA substrate at 100 to 200 uM incubated for 30 mins by ethidium bromide staining based DNA gel electrophoresis
MDA-MB-231 [6] = assay: Induction of DNA damage in human MDA-MB-231 cells assessed as increase in gammaH2AX protein expression at 1 to 5 uM after 24 hrs by Western blot method; assay type: functional, cell-based
MDA-MB-231 [7] = assay: Induction of cell cycle arrest in human MDA-MB-231 cells assessed as accumulation at G2/M phase at 5 uM after 24 hrs by propidium iodide staining based flow cytometry (reference value: 25.19%); assay type: functional
[8] = molecular target: DNA topoisomerase 2-alpha (Homo sapiens) (UniProt P11388); assay: Inhibition of human recombinant topoisomerase 2alpha assessed as reduction in kDNA decatenation at 100 uM incubated for 30 mins by DNA gel electrophoresis
MDA-MB-231 [9] = assay: Induction of DNA damage in human MDA-MB-231 cells assessed as increase in p53 expression level at 1 to 5 uM after 24 hrs by Western blot method; assay type: functional, cell-based
[10] = molecular target: DNA topoisomerase 2-alpha (Homo sapiens) (UniProt P11388); assay: Inhibition of human recombinant topoisomerase 2alpha assessed as reduction in pBR322 DNA relaxation incubated for 30 mins by DNA gel electrophoresis
MDA-MB-231 [11] = assay: Cytotoxicity against human MDA-MB-231 cells after 72 hrs by sulforhodamine B assay; assay type: functional, cell-based; details: MDA-MB-231, 72 h
HeLa = assay: Cytotoxicity against human HeLa cells after 72 hrs by sulforhodamine B assay; assay type: functional, cell-based
MDA-MB-231 [12] = assay: Antitumor activity against human MDA-MB-231 cells xenografted in BALB/c-nu mouse assessed as reduction in tumor weight at 20 mg/kg, iv dosed every other day for 15 days; assay type: functional; details: MDA-MB-231, 360 h
MDA-MB-231 [13] = assay: Induction of cell cycle arrest in human MDA-MB-231 cells assessed as reduction in accumulation at G0/G1 phase at 5 uM after 24 hrs by propidium iodide staining based flow cytometry; assay type: functional
[14] = molecular target: DNA topoisomerase 2-alpha (Homo sapiens) (UniProt P11388); assay: Inhibition of human recombinant topoisomerase 2alpha assessed as reduction in pBR322 DNA relaxation at 200 uM incubated for 30 mins by DNA gel electrophoresis
A549 = assay: Cytotoxicity against human A549 cells after 72 hrs by sulforhodamine B assay; assay type: functional, cell-based; details: A549, 72 h
MDA-MB-231 [15] = assay: Induction of DNA damage in human MDA-MB-231 cells assessed as increase in p53 S46 phosphorylation at 1 to 5 uM after 24 hrs by Western blot method; assay type: functional, cell-based
MDA-MB-231 [16] = assay: Effect on cdc2 protein expression in human MDA-MB-231 cells at 1 to 5 uM after 24 hrs by Western blot method; assay type: functional, cell-based
MDA-MB-231 [17] = assay: Increase in histone H3 Ser10 phosphorylation in human MDA-MB-231 cells at 1 to 5 uM after 24 hrs by Western blot method; assay type: functional, cell-based
Nucleic Acid = assay: Induction of DNA intercalation in Escherichia coli pBR322 DNA at 50 to 200 uM by DNA gel electrophoresis; assay type: nucleic-acid assay
Mus musculus = assay: Toxicity in nude BALB/c mouse xenografted with human MDA-MB-231 cells assessed as reduction in body weight at 20 mg/kg, iv dosed every other day for 15 days (reference value: 24.2 g); assay type: organism-based; set-up: dose 20 mg/kg, route intravenous; details: in vivo, 360 h
MDA-MB-231 [18] = assay: Induction of cell cycle arrest in human MDA-MB-231 cells assessed as reduction in accumulation at S phase at 5 uM after 24 hrs by propidium iodide staining based flow cytometry; assay type: functional
MDA-MB-231 [19] = assay: Induction of DNA damage in human MDA-MB-231 cells assessed as ATR expression level at 1 to 5 uM after 24 hrs by Western blot method; assay type: functional, cell-based
MDA-MB-231 [20] = assay: Induction of DNA damage in human MDA-MB-231 cells assessed as increase in ATR S428 phosphorylation at 1 to 5 uM after 24 hrs by Western blot method; assay type: functional, cell-based

DNA topoisomerase 2-alpha (Homo sapiens), sequence (P11388 whole entry): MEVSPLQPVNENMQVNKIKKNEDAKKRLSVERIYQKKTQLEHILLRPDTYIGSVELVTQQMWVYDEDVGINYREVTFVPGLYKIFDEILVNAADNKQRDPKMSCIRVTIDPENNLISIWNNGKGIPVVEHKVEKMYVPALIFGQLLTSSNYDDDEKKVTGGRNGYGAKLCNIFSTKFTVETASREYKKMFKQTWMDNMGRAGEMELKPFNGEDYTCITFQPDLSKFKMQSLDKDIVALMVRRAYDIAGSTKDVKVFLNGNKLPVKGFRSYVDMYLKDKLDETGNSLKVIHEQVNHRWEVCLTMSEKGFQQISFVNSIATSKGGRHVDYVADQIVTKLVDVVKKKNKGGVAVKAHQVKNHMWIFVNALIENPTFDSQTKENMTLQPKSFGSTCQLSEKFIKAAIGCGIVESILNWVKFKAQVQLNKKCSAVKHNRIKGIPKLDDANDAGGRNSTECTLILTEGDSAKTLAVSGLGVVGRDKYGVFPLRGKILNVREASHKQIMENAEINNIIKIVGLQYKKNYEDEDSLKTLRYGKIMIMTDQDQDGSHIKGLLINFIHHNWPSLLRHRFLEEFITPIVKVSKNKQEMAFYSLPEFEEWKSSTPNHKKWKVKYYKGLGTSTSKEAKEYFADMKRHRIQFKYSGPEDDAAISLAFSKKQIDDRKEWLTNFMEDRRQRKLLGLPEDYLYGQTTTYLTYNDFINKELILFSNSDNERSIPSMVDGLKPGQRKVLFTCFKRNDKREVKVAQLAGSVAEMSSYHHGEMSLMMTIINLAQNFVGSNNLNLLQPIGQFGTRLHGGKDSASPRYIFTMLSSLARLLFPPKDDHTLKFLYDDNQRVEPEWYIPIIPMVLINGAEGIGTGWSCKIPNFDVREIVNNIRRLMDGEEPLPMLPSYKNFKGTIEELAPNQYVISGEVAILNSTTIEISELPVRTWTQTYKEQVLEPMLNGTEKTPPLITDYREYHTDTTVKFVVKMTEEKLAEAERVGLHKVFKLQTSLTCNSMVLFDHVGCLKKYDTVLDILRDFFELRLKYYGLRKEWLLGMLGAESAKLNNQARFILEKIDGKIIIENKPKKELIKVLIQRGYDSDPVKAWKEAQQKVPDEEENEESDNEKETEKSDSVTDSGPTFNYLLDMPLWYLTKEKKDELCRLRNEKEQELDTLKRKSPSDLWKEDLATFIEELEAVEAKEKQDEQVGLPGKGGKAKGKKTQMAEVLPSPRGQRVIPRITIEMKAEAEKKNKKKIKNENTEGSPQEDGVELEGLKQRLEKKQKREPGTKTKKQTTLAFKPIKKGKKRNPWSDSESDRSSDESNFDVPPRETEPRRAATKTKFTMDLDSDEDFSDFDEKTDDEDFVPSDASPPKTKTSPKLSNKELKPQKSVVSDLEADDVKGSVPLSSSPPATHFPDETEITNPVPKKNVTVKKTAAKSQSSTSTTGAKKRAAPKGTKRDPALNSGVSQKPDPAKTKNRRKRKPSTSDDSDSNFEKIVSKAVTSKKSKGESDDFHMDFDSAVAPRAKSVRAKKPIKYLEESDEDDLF

## OCc1cc(-c2ccc3cc(O)ccc3c2)ccc1O
MDA-MB-231 [1]
  Activity: inactive
MDA-MB-231 [2]
  Activity: inactive
[3]
  inhibition: Active
MDA-MB-231 [4]
  Activity: Active
[5]
  inhibition: Active
MDA-MB-231 [6]
  Activity: Dose-dependent effect
MDA-MB-231 [7]
  Activity: 77.79%
[8]
  inhibition: Active
MDA-MB-231 [9]
  Activity: Active
[10]
  inhibition: Dose-dependent effect
MDA-MB-231 [11]
  IC50: 1 µM
HeLa
  IC50: 1.3 µM
MDA-MB-231 [12]
  inhibition in vivo at 20 mg/kg: 43.1%
MDA-MB-231 [13]
  Activity: Active
[14]
  inhibition: Active
A549
  IC50: 2.8 µM
MDA-MB-231 [15]
  Activity: Active
MDA-MB-231 [16]
  Activity: inactive
MDA-MB-231 [17]
  Activity: Active
Nucleic Acid
  Activity: inactive
Mus musculus
  Activity: Non-toxic
MDA-MB-231 [18]
  Activity: Active
MDA-MB-231 [19]
  Activity: inactive
MDA-MB-231 [20]
  Activity: Active
